Experimental data taken from patent US8334261B2, “Osteopenia animal model” (Oriental Yeast Co., Ltd., priority 2006, dated 2012).

Key:
Format in all cases: in vivo, mouse
[1] = system: GST-RANKL-administered 7-week-old female C57BL/6 mice; experiment: Comparison of a plurality of bisphosphonates in GST-RANKL mice; settings: for femur bone density decrease vs PBS group: GST-RANKL 1 mg/kg 3 times
Protocol: GST-RANKL was intraperitoneally administered 3 times at 1 mg/kg every 24 hours. The femur, tibia, and serum were collected from each mouse 1.5 hours after the 3rd GST-RANKL administration. Measurement of TRAP-5b, calcium (Ca), and alkaline phosphatase (ALP) in the serum was carried out. Each femur was subjected to bone density measurement with pQCT and image analysis with micro CT.

[2] = system: 7-week-old female C57BL/6N mice; experiment: Bone healing after GST-RANKL administration
Protocol: GST-RANKL was intraperitoneally administered twice to groups of 7-week-old female C57BL/6N mice at 1 mg/kg every 24 hours. The time point 24 hours after the 2nd administration was designated as “week 0.” The serum and femur were collected from each mouse separately at weeks 0, 1, 4, 6, and 8 and compared with those collected from mice subjected to PBS administration in a similar manner. Regarding bone metabolism markers, TRAP-5b, calcium (Ca), and alkaline phosphatase (ALP) in the serum were measured. Each femur was subjected to bone density measurement with pQCT and image analysis with micro CT.
The bone density was measured at points 0.6 mm, 0.8 mm, 1.0 mm from the distal growth plate on the proximal side of the femur with the use of pQCT.

[3] = system: 7-week-old female C57BL/6N mice; experiment: RANKL administration test (213, 426, 852 nmol GST-RANKL)
Protocol: GST-RANKL was separately administered 3 times via an intraperitoneal route to groups of 7-week-old female C57BL/6N mice (10 individuals each) at doses of 213 nmol, 426 nmol, and 852 nmol every 24 hours. Exsanguination was performed 1.5 hours after the 3rd administration. A group to which PBS was administered in the same manner as above was used as a control group for comparison. 213 nmol, 426 nmol and 852 nmol of GST-RANKL correspond to 10 μg, 20 μg and 40 μg, respectively.
The exsanguinated blood was subjected to measurement of serum bone resorption parameters (calcium, CTx, TRAP-5b) and serum osteogenesis parameters (osteocalcin and alkaline phosphatase (ALP)). Calcium was measured by the OCPC method (WAKO, 272-21801). CTx (Nordic Bioscience Diagnostics), TRAP-5b (IDS Ltd, SB-TR103), and osteocalcin (Biomedical Technologies Inc.) were measured by ELISA. ALP was measured by the Bessey-Lowry method (WAKO, 274-04401).
The femur and the tibia were collected from each exsanguinated mouse. Regarding the femur, the cancellous bone was subjected to bone density measurement with the use of pQCT at points 0.6 mm, 0.8 mm, and 1.0 mm from the distal growth plate on the proximal side. Measurement values were compared with those for a control group by the Dunnett method for testing.

[4] = system: GST-RANKL-administered, ovariectomized 7-week-old female C57BL/6N mice; experiment: Drug evaluation with a selective estrogen receptor modulator (raloxifene) in GST-RANKL/OVX mice
From the text: In addition, PBS (i.p.) and ultrapure water (p.o.) were used as control substances for comparison with GST-RANKL and raloxifene, respectively, upon administration.
The serum collected from each mouse was subjected to measurement of serum bone resorption markers (Ca and TRAP-5b) and an osteogenesis marker (ALP). Each femur was subjected to measurement of the bone density, the bone mineral content, and the cortical bone thickness with pQCT at points 0.6, 0.8, 1.0 mm from the distal growth plate on the proximal side. In addition, image analysis was carried out with micro CT.

[5] = system: 7-week-old male C57BL/6N mice; experiment: Evaluation of male mice
Protocol: (§1) GST-RANKL was intraperitoneally administered 3 times to groups of 7-week-old male C57BL/6N mice at 1 mg/kg every 24 hours. The femur and serum were collected from each mouse 1.5 hours after the 3rd administration and compared with those of the PBS administration group. Regarding bone metabolism markers, TRAP-5b, calcium (Ca), and alkaline phosphatase (ALP) in the serum were measured. Each femur was subjected to bone density measurement with pQCT and image analysis with micro CT.

[6] = system: 7-week-old female ICR mice; experiment: Evaluation of mice of the other lineages (ICR)
Protocol: as §1, with “female ICR” for “male C57BL/6N”

[7] = GST-RANKL administration+OVX group, 1.0 mm

**Q.** What does the source list for “GST-RANKL: fused protein of Glutathione S-transferase with human RANKL residues 140-317, expressed in Escherichia coli, 47.0 kDa”?
**A.** femur bone density decrease vs PBS group ([1]; 0.6 mm): 7%; femur bone density decrease vs PBS group ([1]; 0.8 mm): 13%; femur bone density decrease vs PBS group ([1]; 1.0 mm): 18%; serum TRAP-5b concentration increase ([1]; GST-RANKL 1 mg/kg i.p. 3 times, no significant difference): approximately 40%; serum Ca concentration ([2]; 1 mg/kg i.p. twice, weeks 0 to 8): no significant difference; femur bone density decreased to, vs PBS group ([2]; 0.6 mm, week 0): 5%; femur bone density decreased to, vs PBS group ([2]; 0.6 mm, week 1): 7%; femur bone density decreased to, vs PBS group ([2]; 0.6 mm, week 4): 9%; femur bone density decreased to, vs PBS group ([2]; 0.8 mm, week 0): 10%; femur bone density decreased to, vs PBS group ([2]; 0.8 mm, week 1): 11%; femur bone density decreased to, vs PBS group ([2]; 0.8 mm, week 4): 15%; femur bone density decreased to, vs PBS group ([2]; 1.0 mm, week 0): 16%; femur bone density decreased to, vs PBS group ([2]; 1.0 mm, week 1): 13%; femur bone density decreased to, vs PBS group ([2]; 1.0 mm, week 4): 11%; serum TRAP-5b concentration, fold as high as PBS group ([2]; 24 hours after RANKL administration (0 week)): approximately 3 fold; femur bone density vs PBS group ([2]; week 6): returned to a level comparable to that for the PBS administration group; serum ALP concentration, fold as high ([2]; weeks 0 and 1): approximately 1.4 fold; serum CTx concentration ([3]; 213 nmol): No significant increases; serum TRAP-5b concentration ([3]; 213 nmol): No significant increases; serum calcium concentration ([3]; 213 nmol i.p. 3 times, p<0.05): significantly increased; femur bone density decrease (pQCT) ([3]; 213 nmol, 0.6 mm): 11%; femur bone density decrease (pQCT) ([3]; 213 nmol, 0.8 mm): 23%; femur bone density decrease (pQCT) ([3]; 213 nmol, 1.0 mm): 23%; femur bone density decrease (pQCT) ([3]; 426 nmol, 0.6 mm): 19%; femur bone density decrease (pQCT) ([3]; 426 nmol, 0.8 mm): 29%; femur bone density decrease (pQCT) ([3]; 426 nmol, 1.0 mm): 31%; serum CTx concentration ([3]; 426 nmol, p<0.01): significant increases; serum TRAP-5b concentration ([3]; 426 nmol, p<0.01): significant increases; serum calcium concentration ([3]; 426 nmol, p<0.01): obviously increased; femur bone density decrease (pQCT) ([3]; 852 nmol, 0.6 mm): 30%; femur bone density decrease (pQCT) ([3]; 852 nmol, 0.8 mm): 42%; femur bone density decrease (pQCT) ([3]; 852 nmol, 1.0 mm): 44%; serum CTx concentration ([3]; 852 nmol, p<0.01): significant increases; serum TRAP-5b concentration ([3]; 852 nmol, p<0.01): significant increases; serum calcium concentration ([3]; 852 nmol, p<0.01): obviously increased; image analysis with micro CT ([3]; 213 to 852 nmol): dose-dependent decreases in the bone density; serum ALP concentration vs PBS+Sham group ([4]; GST-RANKL administration+OVX group): tended to increase; cortical bone mineral content decrease vs PBS+Sham group [4, 7]: 49%; cortical bone thickness decrease vs PBS+Sham group [4, 7]: 49%; total bone density vs PBS+Sham group ([4]; GST-RANKL administration+OVX group, no significant difference): tended to decrease; cancellous bone density (pQCT) ([4]; among the all groups): no significant differences; serum ALP concentration ([5]; 1 mg/kg i.p. 3 times): no changes; serum TRAP-5b concentration increase ([5]; 1 mg/kg i.p. 3 times): approximately 65%; serum Ca concentration increase vs PBS group ([5]; 1 mg/kg i.p. 3 times, no significant difference): 7%; femur bone density decrease ([5]; 0.6 mm): approximately 6%; femur bone density decrease ([5]; 0.8 mm): approximately 10%; femur bone density decrease ([5]; 1.0 mm): approximately 15%; serum ALP concentration ([6]; 1 mg/kg i.p. 3 times): no changes; serum Ca concentration vs control ([6]; 1 mg/kg i.p. 3 times): no changes; serum TRAP-5b concentration, fold as high as PBS group ([6]; 1 mg/kg i.p. 3 times): 1.8 fold; femur bone density decrease vs control ([6]; 1.0 mm): approximately 20%; femur bone density decrease vs control ([6]; 1.2 mm): approximately 20%; femur bone density decrease vs control ([6]; 1.4 mm): approximately 22%
